Source: patent publication US20260356819A1, “OXOISOINDOLINYL-SUBSTITUTED […] DERIVATIVE AND USE THEREOF” (GLUETACS THERAPEUTICS (SHANGHAI) CO., LTD., priority 2023, published 2026)

Columns and labels:
Assay type in all cases: cell-based
Conditions in all cases: compounds at 50 nM and 500 nM
[1] = target: T1, GSPT1 (Homo sapiens, UniProt P15170+Q96SW2); experiment: Western blot degradation of GSPT1 in hPBMCs (24 h)
T1 construct: The supernatant was aspirated as the extracted total cell protein; endogenous in cells; host or cells: human peripheral blood mononuclear cells (hPBMCs)
Procedure, shortened: (§1)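 Western blot densitometry after 24 h treatment of human PBMCs (1×10^6 cells/mL) with 50 nM or 500 nM compound. Remaining target (%) = band intensity over internal-control band, normalized to DMSO; degradation = 1 − remaining; DC50 is the concentration giving half the DMSO band signal.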

[2] = target: T2, CK1α (Homo sapiens, UniProt P48729+Q96SW2); experiment: Western blot degradation of CK1α in hPBMCs (24 h)
T2 construct: The supernatant was aspirated as the extracted total cell protein; endogenous in cells; host or cells: human peripheral blood mononuclear cells (hPBMCs)
Procedure, shortened: as §1

[3] = target: T3, IKZF3 (Homo sapiens, UniProt Q96SW2+Q9UKT9); experiment: Western blot degradation of IKZF3 in hPBMCs (24 h)
T3 construct: The supernatant was aspirated as the extracted total cell protein; endogenous in cells; host or cells: human peripheral blood mononuclear cells (hPBMCs)
Procedure, shortened: as §1

[4] = target: T4, IKZF2 (Homo sapiens, UniProt Q96SW2+Q9UKS7); experiment: Western blot degradation of IKZF2 in hPBMCs (24 h)
T4 construct: The supernatant was aspirated as the extracted total cell protein; endogenous in cells; host or cells: human peripheral blood mononuclear cells (hPBMCs)
Procedure, shortened: as §1

[5] = target: T5, WEE1 (Homo sapiens, UniProt P30291+Q96SW2); experiment: Western blot degradation of WEE1 in hPBMCs (24 h)
T5 construct: The supernatant was aspirated as the extracted total cell protein; endogenous in cells; host or cells: human peripheral blood mononuclear cells (hPBMCs)
Procedure, shortened: as §1

[6] = target: T6, IKZF1 (Homo sapiens, UniProt Q13422+Q96SW2); experiment: Western blot degradation of IKZF1 in hPBMCs (24 h)
T6 construct: The supernatant was aspirated as the extracted total cell protein; endogenous in cells; host or cells: human peripheral blood mononuclear cells (hPBMCs)
Procedure, shortened: as §1

T1 sequence (P15170 whole entry): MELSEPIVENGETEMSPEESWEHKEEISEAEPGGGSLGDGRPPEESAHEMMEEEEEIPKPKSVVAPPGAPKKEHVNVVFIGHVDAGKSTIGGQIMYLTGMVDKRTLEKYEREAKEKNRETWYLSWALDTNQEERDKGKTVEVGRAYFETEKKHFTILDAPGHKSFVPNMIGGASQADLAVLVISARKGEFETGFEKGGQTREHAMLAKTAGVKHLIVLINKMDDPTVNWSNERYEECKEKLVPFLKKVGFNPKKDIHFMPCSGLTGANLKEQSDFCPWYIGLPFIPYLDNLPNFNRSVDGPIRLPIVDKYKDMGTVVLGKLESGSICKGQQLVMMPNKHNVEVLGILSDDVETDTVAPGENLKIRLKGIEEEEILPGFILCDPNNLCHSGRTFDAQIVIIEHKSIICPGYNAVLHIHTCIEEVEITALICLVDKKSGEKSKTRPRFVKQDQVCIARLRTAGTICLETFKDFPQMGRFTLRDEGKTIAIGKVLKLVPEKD
T1 sequence (Q96SW2 whole entry): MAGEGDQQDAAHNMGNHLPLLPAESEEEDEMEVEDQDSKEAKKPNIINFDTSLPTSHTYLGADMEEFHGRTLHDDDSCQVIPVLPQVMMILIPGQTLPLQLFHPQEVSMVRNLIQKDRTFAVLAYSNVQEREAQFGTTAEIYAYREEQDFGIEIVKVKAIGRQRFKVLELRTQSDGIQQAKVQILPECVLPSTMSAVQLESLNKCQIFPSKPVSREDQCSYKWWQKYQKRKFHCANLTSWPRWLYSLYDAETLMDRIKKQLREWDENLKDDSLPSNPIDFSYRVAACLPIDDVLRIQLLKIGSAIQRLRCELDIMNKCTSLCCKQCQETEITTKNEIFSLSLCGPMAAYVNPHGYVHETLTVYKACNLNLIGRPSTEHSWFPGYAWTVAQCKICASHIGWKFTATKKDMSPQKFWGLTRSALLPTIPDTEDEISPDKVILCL
T1 sequence (Q16531 whole entry partner): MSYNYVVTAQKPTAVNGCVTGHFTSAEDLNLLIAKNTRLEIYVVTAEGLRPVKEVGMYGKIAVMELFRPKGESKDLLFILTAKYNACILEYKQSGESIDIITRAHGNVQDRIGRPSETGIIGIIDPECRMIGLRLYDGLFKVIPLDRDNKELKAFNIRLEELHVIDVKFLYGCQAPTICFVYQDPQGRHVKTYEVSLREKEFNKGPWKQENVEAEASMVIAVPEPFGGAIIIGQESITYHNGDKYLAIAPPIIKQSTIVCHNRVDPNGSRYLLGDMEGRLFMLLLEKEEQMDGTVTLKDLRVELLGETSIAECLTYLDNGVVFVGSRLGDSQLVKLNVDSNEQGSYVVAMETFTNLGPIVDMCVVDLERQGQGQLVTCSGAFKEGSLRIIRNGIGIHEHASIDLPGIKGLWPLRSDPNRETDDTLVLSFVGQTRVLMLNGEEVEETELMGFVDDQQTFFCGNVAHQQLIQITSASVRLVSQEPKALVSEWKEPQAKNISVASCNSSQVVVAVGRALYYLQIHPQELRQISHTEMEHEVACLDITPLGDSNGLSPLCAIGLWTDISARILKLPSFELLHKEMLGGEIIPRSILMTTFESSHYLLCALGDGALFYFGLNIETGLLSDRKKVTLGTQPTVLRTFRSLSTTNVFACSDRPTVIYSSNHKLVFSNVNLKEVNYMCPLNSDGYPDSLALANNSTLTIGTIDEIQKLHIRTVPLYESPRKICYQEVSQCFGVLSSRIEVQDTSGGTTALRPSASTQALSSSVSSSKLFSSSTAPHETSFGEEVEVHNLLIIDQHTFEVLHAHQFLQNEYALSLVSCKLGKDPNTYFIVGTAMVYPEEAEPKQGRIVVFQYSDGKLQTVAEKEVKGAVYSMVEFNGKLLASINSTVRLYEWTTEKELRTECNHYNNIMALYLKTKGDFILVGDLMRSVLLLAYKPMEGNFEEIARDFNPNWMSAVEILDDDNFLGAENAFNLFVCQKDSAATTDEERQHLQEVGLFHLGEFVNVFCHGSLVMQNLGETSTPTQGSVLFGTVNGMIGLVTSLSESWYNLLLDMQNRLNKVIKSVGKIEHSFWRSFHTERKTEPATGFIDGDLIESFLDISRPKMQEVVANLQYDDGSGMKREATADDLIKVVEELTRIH
T5 sequence (P30291 whole entry): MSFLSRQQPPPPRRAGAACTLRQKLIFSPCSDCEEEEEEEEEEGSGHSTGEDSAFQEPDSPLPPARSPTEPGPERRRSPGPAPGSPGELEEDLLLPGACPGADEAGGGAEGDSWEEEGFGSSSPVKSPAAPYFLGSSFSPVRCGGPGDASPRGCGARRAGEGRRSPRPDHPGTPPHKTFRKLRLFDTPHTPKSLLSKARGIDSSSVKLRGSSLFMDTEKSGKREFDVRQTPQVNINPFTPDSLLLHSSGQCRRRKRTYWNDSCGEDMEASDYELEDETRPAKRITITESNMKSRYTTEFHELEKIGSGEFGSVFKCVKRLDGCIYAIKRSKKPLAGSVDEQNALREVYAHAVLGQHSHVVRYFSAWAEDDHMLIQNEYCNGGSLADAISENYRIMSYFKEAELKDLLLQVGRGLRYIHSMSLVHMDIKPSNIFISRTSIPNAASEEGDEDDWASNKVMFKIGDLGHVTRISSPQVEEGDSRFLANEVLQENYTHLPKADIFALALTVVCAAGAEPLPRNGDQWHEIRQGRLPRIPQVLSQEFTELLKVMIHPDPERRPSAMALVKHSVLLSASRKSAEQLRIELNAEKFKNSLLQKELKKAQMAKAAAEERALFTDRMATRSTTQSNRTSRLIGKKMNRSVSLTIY
T5 sequence (Q96SW2 whole entry): as the sequence (Q96SW2 whole entry) above
T5 sequence (Q16531 whole entry partner): as the sequence (Q16531 whole entry partner) above
T6 sequence (Q13422 whole entry): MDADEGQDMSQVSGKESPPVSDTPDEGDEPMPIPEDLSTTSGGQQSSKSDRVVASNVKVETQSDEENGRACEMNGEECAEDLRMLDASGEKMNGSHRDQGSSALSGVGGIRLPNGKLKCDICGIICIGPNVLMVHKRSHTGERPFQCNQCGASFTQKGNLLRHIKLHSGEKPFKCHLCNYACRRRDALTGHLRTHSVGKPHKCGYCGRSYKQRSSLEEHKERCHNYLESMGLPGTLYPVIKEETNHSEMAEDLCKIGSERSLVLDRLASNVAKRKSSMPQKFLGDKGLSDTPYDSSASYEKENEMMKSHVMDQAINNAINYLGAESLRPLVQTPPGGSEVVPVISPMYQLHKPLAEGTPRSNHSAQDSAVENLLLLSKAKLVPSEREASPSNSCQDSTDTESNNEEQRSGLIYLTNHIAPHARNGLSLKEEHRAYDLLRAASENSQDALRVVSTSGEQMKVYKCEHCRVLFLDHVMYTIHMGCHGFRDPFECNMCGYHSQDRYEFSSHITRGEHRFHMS
T6 sequence (Q96SW2 whole entry): as the sequence (Q96SW2 whole entry) above
T6 sequence (Q16531 whole entry partner): as the sequence (Q16531 whole entry partner) above
T2 sequence (P48729 whole entry): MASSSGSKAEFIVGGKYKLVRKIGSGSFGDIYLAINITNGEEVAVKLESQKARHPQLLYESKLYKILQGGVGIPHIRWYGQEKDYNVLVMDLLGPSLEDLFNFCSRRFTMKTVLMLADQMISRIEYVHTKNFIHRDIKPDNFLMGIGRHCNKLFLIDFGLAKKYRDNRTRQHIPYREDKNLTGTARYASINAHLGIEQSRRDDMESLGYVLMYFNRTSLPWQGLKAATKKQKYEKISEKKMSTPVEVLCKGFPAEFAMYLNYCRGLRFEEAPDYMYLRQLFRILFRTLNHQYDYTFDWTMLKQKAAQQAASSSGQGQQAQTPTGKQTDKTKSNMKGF
T2 sequence (Q96SW2 whole entry): as the sequence (Q96SW2 whole entry) above
T2 sequence (Q16531 whole entry partner): as the sequence (Q16531 whole entry partner) above
T3 sequence (Q9UKT9 whole entry): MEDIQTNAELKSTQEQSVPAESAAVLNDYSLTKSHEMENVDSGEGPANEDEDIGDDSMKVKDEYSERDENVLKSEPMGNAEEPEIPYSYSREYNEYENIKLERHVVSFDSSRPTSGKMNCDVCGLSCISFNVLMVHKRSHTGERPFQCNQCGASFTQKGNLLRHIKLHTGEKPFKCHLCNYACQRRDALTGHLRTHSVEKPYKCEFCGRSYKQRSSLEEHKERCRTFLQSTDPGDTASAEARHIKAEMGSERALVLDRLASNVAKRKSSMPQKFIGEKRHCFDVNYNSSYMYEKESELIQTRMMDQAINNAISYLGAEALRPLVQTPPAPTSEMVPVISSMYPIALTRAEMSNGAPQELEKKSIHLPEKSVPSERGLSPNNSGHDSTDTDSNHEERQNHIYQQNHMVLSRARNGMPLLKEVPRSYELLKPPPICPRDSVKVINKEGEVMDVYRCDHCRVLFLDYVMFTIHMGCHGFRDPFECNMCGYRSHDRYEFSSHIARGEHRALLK
T3 sequence (Q96SW2 whole entry): as the sequence (Q96SW2 whole entry) above
T3 sequence (Q16531 whole entry partner): as the sequence (Q16531 whole entry partner) above

## CC1CN(Cc2ccc3c(c2)CN(N2CCC(=O)NC2=O)C3=O)CC(C)N1C(c1ccccc1)c1ccccc1 (stereo not drawn) [GT-06431, 1-(5-((4-benzhydryl-3,5-dimethylpiperazin-1-yl)methyl)-1-oxoisoindolin-2-yl)dihydropyrimidine-2,4(1H,3H)-dione]
[1]
  GSPT1 substrate protein remaining %: A (0% ≤ substrate protein remaining % ≤80%)
[2]
  CK1α substrate protein remaining %: B (80%< substrate protein remaining % ≤100%)
[3]
  IKZF3 substrate protein remaining %: B (80%< substrate protein remaining % ≤100%)
[4]
  IKZF2 substrate protein remaining %: A (0% ≤ substrate protein remaining % ≤80%)
[5]
  WEE1 substrate protein remaining %: A (0% ≤ substrate protein remaining % ≤80%)
[6]
  IKZF1 substrate protein remaining %: A (0% ≤ substrate protein remaining % ≤80%)

## O=C1CCN(N2C(=O)c3ccc(CN4CCN(Cc5ccccc5-c5ccc(Cl)cc5)CC4)cc3C2=O)C(=O)N1 [GT-06432, 5-((4-((4′-chloro-[1,1′-biphenyl]-2-yl)methyl)piperazin-1-yl)methyl)-2-(2,4-dioxotetrahydropyrimidin-1(2H)-yl)isoindoline-1,3-dione]
[1]
  GSPT1 substrate protein remaining %: A (0% ≤ substrate protein remaining % ≤80%)
[2]
  CK1α substrate protein remaining %: B (80%< substrate protein remaining % ≤100%)
[3]
  IKZF3 substrate protein remaining %: B (80%< substrate protein remaining % ≤100%)
[4]
  IKZF2 substrate protein remaining %: B (80%< substrate protein remaining % ≤100%)
[5]
  WEE1 substrate protein remaining %: A (0% ≤ substrate protein remaining % ≤80%)
[6]
  IKZF1 substrate protein remaining %: A (0% ≤ substrate protein remaining % ≤80%)

## O=C1CCN(N2Cc3cc(CN4CCN(Cc5ccccc5-c5ccc(Cl)cc5)CC4)ccc3C2=O)C(=O)N1 [GT-06433, 1-(5-((4-((4′-chloro-[1,1′-biphenyl]-2-yl)methyl)piperazin-1-yl)methyl)-1-oxoisoindolin-2-yl)dihydropyrimidine-2,4(1H,3H)-dione]
[1]
  GSPT1 substrate protein remaining %: A (0% ≤ substrate protein remaining % ≤80%)
[2]
  CK1α substrate protein remaining %: B (80%< substrate protein remaining % ≤100%)
[3]
  IKZF3 substrate protein remaining %: A (0% ≤ substrate protein remaining % ≤80%)
[4]
  IKZF2 substrate protein remaining %: A (0% ≤ substrate protein remaining % ≤80%)
[5]
  WEE1 substrate protein remaining %: A (0% ≤ substrate protein remaining % ≤80%)
[6]
  IKZF1 substrate protein remaining %: A (0% ≤ substrate protein remaining % ≤80%)

## Cc1ccsc1C1=CCN(Cc2ccc3c(c2)C(=O)N(N2CCC(=O)NC2=O)C3=O)CC1 [GT-06434, 2-(2,4-dioxotetrahydropyrimidin-1(2H)-yl)-5-((4-(3-methylthiophen-2-yl)-3,6-dihydropyridin-1(2H)-yl)methyl)isoindoline-1,3-dione]
[1]
  GSPT1 substrate protein remaining %: A (0% ≤ substrate protein remaining % ≤80%)
[2]
  CK1α substrate protein remaining %: B (80%< substrate protein remaining % ≤100%)
[3]
  IKZF3 substrate protein remaining %: A (0% ≤ substrate protein remaining % ≤80%)
[4]
  IKZF2 substrate protein remaining %: A (0% ≤ substrate protein remaining % ≤80%)
[5]
  WEE1 substrate protein remaining %: A (0% ≤ substrate protein remaining % ≤80%)
[6]
  IKZF1 substrate protein remaining %: B (80%< substrate protein remaining % ≤100%)

## O=C1CCN(N2C(=O)c3ccc(CN4CC=C(c5ccsc5)CC4)cc3C2=O)C(=O)N1 [GT-06435, 2-(2,4-dioxotetrahydropyrimidin-1(2H)-yl)-5-((4-(thiophen-3-yl)-3,6-dihydropyridin-1(2H)-yl)methyl)isoindoline-1,3-dione]
[1]
  GSPT1 substrate protein remaining %: A (0% ≤ substrate protein remaining % ≤80%)
[2]
  CK1α substrate protein remaining %: B (80%< substrate protein remaining % ≤100%)
[3]
  IKZF3 substrate protein remaining %: A (0% ≤ substrate protein remaining % ≤80%)
[4]
  IKZF2 substrate protein remaining %: A (0% ≤ substrate protein remaining % ≤80%)
[5]
  WEE1 substrate protein remaining %: A (0% ≤ substrate protein remaining % ≤80%)
[6]
  IKZF1 substrate protein remaining %: B (80%< substrate protein remaining % ≤100%)

## C[C@@H]1CN(C(c2ccccc2)c2ccccc2)CCN1Cc1ccc2c(c1)CN(N1CCC(=O)NC1=O)C2=O [GT-06448, (R)-1-(5-((4-benzhydryl-2-methylpiperazin-1-yl)methyl)-1-oxoisoindolin-2-yl)dihydropyrimidine-2,4(1H,3H)-dione]
[1]
  GSPT1 substrate protein remaining %: A (0% ≤ substrate protein remaining % ≤80%)
[2]
  CK1α substrate protein remaining %: B (80%< substrate protein remaining % ≤100%)
[3]
  IKZF3 substrate protein remaining %: A (0% ≤ substrate protein remaining % ≤80%)
[4]
  IKZF2 substrate protein remaining %: A (0% ≤ substrate protein remaining % ≤80%)
[5]
  WEE1 substrate protein remaining %: B (80%< substrate protein remaining % ≤100%)
[6]
  IKZF1 substrate protein remaining %: B (80%< substrate protein remaining % ≤100%)

## C[C@@H]1CN(C(c2ccccc2)c2ccccc2)CCN1Cc1ccc2c(c1)C(=O)N(N1CCC(=O)NC1=O)C2=O [GT-06449, (R)-5-((4-benzhydryl-2-methylpiperazin-1-yl)methyl)-2-(2,4-dioxotetrahydropyrimidin-1(2H)-yl)isoindoline-1,3-dione]
[1]
  GSPT1 substrate protein remaining %: A (0% ≤ substrate protein remaining % ≤80%)
[2]
  CK1α substrate protein remaining %: B (80%< substrate protein remaining % ≤100%)
[3]
  IKZF3 substrate protein remaining %: A (0% ≤ substrate protein remaining % ≤80%)
[4]
  IKZF2 substrate protein remaining %: A (0% ≤ substrate protein remaining % ≤80%)
[5]
  WEE1 substrate protein remaining %: B (80%< substrate protein remaining % ≤100%)
[6]
  IKZF1 substrate protein remaining %: B (80%< substrate protein remaining % ≤100%)

## O=C1CCN(N2Cc3cc(CN4CC5CCC4CN5C(c4ccccc4)c4ccccc4)ccc3C2=O)C(=O)N1 (stereo not drawn) [GT-06450, 1-(5-((5-benzhydryl-2,5-diazabicyclo[2.2.2]octan-2-yl)methyl)-1-oxoisoindolin-2-yl)dihydropyrimidine-2,4(1H,3H)-dione]
[1]
  GSPT1 substrate protein remaining %: A (0% ≤ substrate protein remaining % ≤80%)
[2]
  CK1α substrate protein remaining %: B (80%< substrate protein remaining % ≤100%)
[3]
  IKZF3 substrate protein remaining %: A (0% ≤ substrate protein remaining % ≤80%)
[4]
  IKZF2 substrate protein remaining %: A (0% ≤ substrate protein remaining % ≤80%)
[5]
  WEE1 substrate protein remaining %: A (0% ≤ substrate protein remaining % ≤80%)
[6]
  IKZF1 substrate protein remaining %: B (80%< substrate protein remaining % ≤100%)

## O=C1CCN(N2C(=O)c3ccc(CN4CC5CCC4CN5C(c4ccccc4)c4ccccc4)cc3C2=O)C(=O)N1 (stereo not drawn) [GT-06451, 5-((5-benzhydryl-2,5-diazabicyclo[2.2.2]octan-2-yl)methyl)-2-(2,4-dioxotetrahydropyrimidin-1(2H)-yl)isoindoline-1,3-dione]
[1]
  GSPT1 substrate protein remaining %: B (80%< substrate protein remaining % ≤100%)
[2]
  CK1α substrate protein remaining %: B (80%< substrate protein remaining % ≤100%)
[3]
  IKZF3 substrate protein remaining %: B (80%< substrate protein remaining % ≤100%)
[4]
  IKZF2 substrate protein remaining %: B (80%< substrate protein remaining % ≤100%)
[5]
  WEE1 substrate protein remaining %: A (0% ≤ substrate protein remaining % ≤80%)
[6]
  IKZF1 substrate protein remaining %: B (80%< substrate protein remaining % ≤100%)

## O=C1CCN(N2Cc3cc(CN4CC5CCC(C4)N5C(c4ccccc4)c4ccccc4)ccc3C2=O)C(=O)N1 [GT-06452, 1-(5-((8-benzhydryl-3,8-diazabicyclo[3.2.1]octan-3-yl)methyl)-1-oxoisoindolin-2-yl)dihydropyrimidine-2,4(1H,3H)-dione]
[1]
  GSPT1 substrate protein remaining %: B (80%< substrate protein remaining % ≤100%)
[2]
  CK1α substrate protein remaining %: B (80%< substrate protein remaining % ≤100%)
[3]
  IKZF3 substrate protein remaining %: B (80%< substrate protein remaining % ≤100%)
[4]
  IKZF2 substrate protein remaining %: B (80%< substrate protein remaining % ≤100%)
[5]
  WEE1 substrate protein remaining %: A (0% ≤ substrate protein remaining % ≤80%)
[6]
  IKZF1 substrate protein remaining %: B (80%< substrate protein remaining % ≤100%)

## O=C1CCN(N2C(=O)c3ccc(CN4CC5CCC(C4)N5C(c4ccccc4)c4ccccc4)cc3C2=O)C(=O)N1 [GT-06453, 5-((8-benzhydryl-3,8-diazabicyclo[3.2.1]octan-3-yl)methyl)-2-(2,4-dioxotetrahydropyrimidin-1(2H)-yl)isoindoline-1,3-dione]
[1]
  GSPT1 substrate protein remaining %: B (80%< substrate protein remaining % ≤100%)
[2]
  CK1α substrate protein remaining %: B (80%< substrate protein remaining % ≤100%)
[3]
  IKZF3 substrate protein remaining %: B (80%< substrate protein remaining % ≤100%)
[4]
  IKZF2 substrate protein remaining %: A (0% ≤ substrate protein remaining % ≤80%)
[5]
  WEE1 substrate protein remaining %: B (80%< substrate protein remaining % ≤100%)
[6]
  IKZF1 substrate protein remaining %: B (80%< substrate protein remaining % ≤100%)

## O=C1CCN(N2Cc3cc(CN4C5CCC4CN(C(c4ccccc4)c4ccccc4)C5)ccc3C2=O)C(=O)N1 [GT-06454, 1-(5-((3-benzhydryl-3,8-diazabicyclo[3.2.1]octan-8-yl)methyl)-1-oxoisoindolin-2-yl)dihydropyrimidine-2,4(1H,3H)-dione]
[1]
  GSPT1 substrate protein remaining %: B (80%< substrate protein remaining % ≤100%)
[2]
  CK1α substrate protein remaining %: B (80%< substrate protein remaining % ≤100%)
[3]
  IKZF3 substrate protein remaining %: B (80%< substrate protein remaining % ≤100%)
[4]
  IKZF2 substrate protein remaining %: B (80%< substrate protein remaining % ≤100%)
[5]
  WEE1 substrate protein remaining %: A (0% ≤ substrate protein remaining % ≤80%)
[6]
  IKZF1 substrate protein remaining %: B (80%< substrate protein remaining % ≤100%)
